These results are taken from EP0222155A1, “5-Fluorouracil derivatives” (TERUMO KABUSHIKI KAISHA trading as TERUMO CORPORATION, priority 1985, dated 1987).

Series [1] has as its system P388 cells. In words: Antitumor activity: increase in life survival of mice transplanted i.p. with P388 cells. The class given is in vivo, CDF₁ mice. The conditions noted are these: for ILS (%): intraperitoneally once a day for five days, P388 in CDF₁ mice. As for the experimental part: CDF₁ mice (male, 5 weeks old) were intraperitoneally transplanted with P388 cells at a dose of 1 x 10⁶ cells/mouse.
From the next day of the transplantation, a test compound of the invention in the form of 0.5% carboxymethylcellulose suspension was intraperitoneally administered once a day for consecutive five days. Percent increase in life survival was determined: [formula]

In series [2] the test system is platelet aggregation. Nature of the series: Platelet aggregation-inhibitory activity in platelet-rich plasma. In kind it is cell-based, rabbit. The conditions noted are these: Oryctolagus cuniculus. As for the experimental part:
From rabbit carotid […] was drawn blood (9 volumes) by means of a syringe containing 3.8% aqueous sodium citrate (1 volume). The blood was centrifuged to obtain platelet-rich plasma (PRP: 550,000/µl). Platelet aggregation-inhibitory activity of a compound of the invention was measure using as an aggregation-inducing agent arachidonic acid or collagen. 50%-inhibition concentration (IC₅₀) against the platelet aggregation caused by arachidonic acid (80 µM) and collagen (30 µg/ml) is shown in Table 2 for representative compounds according to the invention.

A short description of series [3]: Acute toxicity test, oral administration. As to conditions: mouse, in vivo, ICR male mice (7 weeks old), read-out: LD₅₀. An excerpt: An acute toxicity test was run with ICR male mice (7 weeks old) by an oral administration.
Where [4] appears, read: aggregation caused by arachidonic acid (80 µM), rabbit PRP, read-out: 50%-Inhibition concentration, Arachidonic acid.
The mark [5] stands for this setting: aggregation caused by collagen (30 µg/ml), rabbit PRP, read-out: 50%-Inhibition concentration, Collagen.

Like-named read-outs stand apart in the source and are kept apart here.

As for `CC/C=C\C/C=C\C/C=C\CCCCCCCC(=O)OC(C)n1cc(F)c(=O)[nH]c1=O` (stereo not drawn) [Example 1, 1-(α-9,12,15-octadecatrienoyloxy-α-methyl)-methyl-5-fluorouracil], the “ILS (%)” value in series [1] (Dose 10 mg/kg/day) amounted to 24.6%; in series [1] (Dose 30 mg/kg/day), 46.8%; in series [1] (Dose 100 mg/kg/day) it was 80.5%. The IC50 in series [2] (setting [4]) amounted to 65 µM; in series [2] (setting [5]), 340 µM.
Taken in the same sequence, the figures for `CC/C=C\C/C=C\C/C=C\CCCCCCCC(=O)OC(CC)n1cc(F)c(=O)[nH]c1=O` (stereo not drawn) [Example 2, 1-(α-9,12,15-octadecatrienoyloxy-α-ethyl)methyl-5-fluorouracil] were 27.2%, 39.7%, 73.8%, 57 µM and 530 µM.
Taken in the same sequence, the figures for `CC/C=C\C/C=C\C/C=C\C/C=C\C/C=C\CCCC(=O)OC(C)n1cc(F)c(=O)[nH]c1=O` (stereo not drawn) [Example 3, 1-(α-5,8,11,14,17-eicosapentaenoyloxy-α-methyl)methyl-5-fluorouracil] were 26.8%, 49.2%, 82.1%, 32 µM and 140 µM.
As for `O=c1[nH]cc(F)c(=O)[nH]1` [Example 5-FU, 5-Fluorouracil], the figures for the “ILS (%)” value in series [1] (Dose 10 mg/kg/day), in series [1] (Dose 30 mg/kg/day) and in series [1] (Dose 40 mg/kg/day) were 65.2%, 27.4% and -24.8%, respectively. In addition, in series [1] (Dose 100 mg/kg/day as stated in the text), the “survival days compared with control mice (in words)” value was “survival days shorter than those for control mice”. The LD50 in series [3] was 309 mg/kg. The IC50 in series [2] (read-out: 50%-Inhibition concentration, Arachidonic acid) was greater than 1000 µM; in series [2] (read-out: 50%-Inhibition concentration, Collagen), greater than 1000 µM.
